Experimental data from PubChem BioAssay (NCI).
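Where inhibition never reached the appropriate level, the endpoint shown equals the highest concentration tested. Otherwise, values were interpolated linearly from a five-concentration, 48-hour dose response in 96-well plates. GI50 is the concentration that inhibits growth by half. TGI denotes the concentration required for complete inhibition of growth.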

Key:
Assay in all cases: growth of human tumour cells (NCI), 48 h; in the data active = GI50 below about 0.43 µM; inactive = the rest
BT-549 breast = tested on: BT-549 breast
COLO 205 colon = tested on: COLO 205 colon
DU-145 prostate = tested on: DU-145 prostate
HOP-92 NSCLC = tested on: HOP-92 NSCLC
LOX IMVI melanoma = tested on: LOX IMVI melanoma
NCI-H522 lung = tested on: NCI-H522 lung
SK-OV-3 ovarian = tested on: SK-OV-3 ovarian
T-47D breast = tested on: T-47D breast
U251 CNS = tested on: U251 CNS
UACC-62 melanoma = tested on: UACC-62 melanoma

CC(=O)c1ccc(Nc2cc(-c3ccccc3)nc3c(O)cccc23)cc1
9.64 µM: TGI (NCI-H522 lung)
29.6 µM: TGI (UACC-62 melanoma)
63.7 µM: TGI (T-47D breast)
> 100 µM: TGI (BT-549 breast) | TGI (COLO 205 colon) | TGI (DU-145 prostate) | TGI (LOX IMVI melanoma) | TGI (SK-OV-3 ovarian) | TGI (U251 CNS)
inactive: GI50 (BT-549 breast) 28.7 µM | GI50 (COLO 205 colon) 32.1 µM | GI50 (DU-145 prostate) 21.8 µM | GI50 (HOP-92 NSCLC) 13.7 µM | GI50 (LOX IMVI melanoma) 14.5 µM | GI50 (NCI-H522 lung) 2.98 µM | GI50 (SK-OV-3 ovarian) 57.1 µM | GI50 (T-47D breast) 16.6 µM | GI50 (U251 CNS) 9.44 µM | GI50 (UACC-62 melanoma) 12.7 µM
50.5 µM: TGI (HOP-92 NSCLC)

NC(CO)Cc1cnc[nH]1 (stereo unspecified)
inactive: GI50 (COLO 205 colon) > 100 µM | GI50 (LOX IMVI melanoma) > 100 µM | GI50 (SK-OV-3 ovarian) > 100 µM | GI50 (T-47D breast) > 100 µM | GI50 (U251 CNS) > 100 µM | GI50 (UACC-62 melanoma) > 100 µM
> 100 µM: TGI (BT-549 breast) | TGI (COLO 205 colon) | TGI (DU-145 prostate) | TGI (LOX IMVI melanoma) | TGI (NCI-H522 lung) | TGI (SK-OV-3 ovarian) | TGI (T-47D breast) | TGI (U251 CNS) | TGI (UACC-62 melanoma)
> 10 µM: TGI (HOP-92 NSCLC)

COc1cc(C(=O)NC2c3ccccc3-c3ccccc32)c(N)cc1OCc1ccccc1
inactive: GI50 (BT-549 breast) 17 µM | GI50 (COLO 205 colon) 63.9 µM | GI50 (DU-145 prostate) 2.87 µM | GI50 (HOP-92 NSCLC) 14.2 µM | GI50 (LOX IMVI melanoma) 63.6 µM | GI50 (NCI-H522 lung) 34.7 µM | GI50 (SK-OV-3 ovarian) 16.9 µM | GI50 (T-47D breast) 29.5 µM | GI50 (U251 CNS) 14.4 µM | GI50 (UACC-62 melanoma) 20.1 µM
33.6 µM: TGI (HOP-92 NSCLC)
67.5 µM: TGI (UACC-62 melanoma)
43.8 µM: TGI (SK-OV-3 ovarian)
42.2 µM: TGI (BT-549 breast)
34.7 µM: TGI (U251 CNS)
> 100 µM: TGI (COLO 205 colon) | TGI (DU-145 prostate) | TGI (LOX IMVI melanoma) | TGI (NCI-H522 lung) | TGI (T-47D breast)

Cc1cc([C@@H](C)Nc2ccccc2C(=O)O)c2nc(N3CCOCC3)cc(=O)n2c1
inactive: GI50 (BT-549 breast) 1.17 µM | GI50 (COLO 205 colon) > 10 µM | GI50 (DU-145 prostate) > 10 µM | GI50 (LOX IMVI melanoma) 6.73 µM | GI50 (NCI-H522 lung) > 10 µM | GI50 (SK-OV-3 ovarian) 1.08 µM | GI50 (U251 CNS) > 10 µM | GI50 (UACC-62 melanoma) 0.627 µM
6.08 µM: TGI (HOP-92 NSCLC)
active: GI50 (HOP-92 NSCLC) 0.175 µM | GI50 (T-47D breast) 0.207 µM
1.94 µM: TGI (T-47D breast)
> 10 µM: TGI (BT-549 breast) | TGI (COLO 205 colon) | TGI (DU-145 prostate) | TGI (LOX IMVI melanoma) | TGI (NCI-H522 lung) | TGI (SK-OV-3 ovarian) | TGI (U251 CNS) | TGI (UACC-62 melanoma)

COc1ccc(NC(=O)Nc2n[nH]c3ccccc23)cc1
> 100 µM: TGI (BT-549 breast) | TGI (COLO 205 colon) | TGI (DU-145 prostate) | TGI (HOP-92 NSCLC) | TGI (LOX IMVI melanoma) | TGI (NCI-H522 lung) | TGI (SK-OV-3 ovarian) | TGI (T-47D breast) | TGI (U251 CNS) | TGI (UACC-62 melanoma)
inactive: GI50 (BT-549 breast) > 100 µM | GI50 (COLO 205 colon) > 100 µM | GI50 (DU-145 prostate) > 100 µM | GI50 (HOP-92 NSCLC) > 100 µM | GI50 (LOX IMVI melanoma) > 100 µM | GI50 (NCI-H522 lung) > 100 µM | GI50 (SK-OV-3 ovarian) > 100 µM | GI50 (T-47D breast) > 100 µM | GI50 (U251 CNS) > 100 µM | GI50 (UACC-62 melanoma) > 100 µM

COc1cc2ncn(-c3cc(OCc4ccccc4Cl)c(C(N)=O)s3)c2cc1OC
10.4 µM: TGI (U251 CNS)
> 25 µM: TGI (COLO 205 colon) | TGI (HOP-92 NSCLC) | TGI (LOX IMVI melanoma) | TGI (T-47D breast) | TGI (UACC-62 melanoma)
inactive: GI50 (BT-549 breast) 1.41 µM | GI50 (HOP-92 NSCLC) 3.8 µM | GI50 (T-47D breast) 3.78 µM
> 17 µM: TGI (BT-549 breast)
1.13 µM: TGI (NCI-H522 lung)
active: GI50 (COLO 205 colon) 0.111 µM | GI50 (DU-145 prostate) 0.105 µM | GI50 (LOX IMVI melanoma) 0.169 µM | GI50 (NCI-H522 lung) 0.13 µM | GI50 (SK-OV-3 ovarian) 0.274 µM | GI50 (U251 CNS) 0.224 µM | GI50 (UACC-62 melanoma) 0.283 µM
9.32 µM: TGI (SK-OV-3 ovarian)
0.511 µM: TGI (DU-145 prostate)

CN1CCN(CC#Cc2cccc(C(=O)c3cnn(-c4ccc(F)cc4)c3N)c2)CC1
inactive: GI50 (BT-549 breast) > 25 µM | GI50 (COLO 205 colon) > 25 µM | GI50 (DU-145 prostate) > 25 µM | GI50 (HOP-92 NSCLC) 15.2 µM | GI50 (LOX IMVI melanoma) > 25 µM | GI50 (NCI-H522 lung) > 25 µM | GI50 (SK-OV-3 ovarian) > 25 µM | GI50 (T-47D breast) > 25 µM | GI50 (U251 CNS) > 25 µM | GI50 (UACC-62 melanoma) > 25 µM
> 25 µM: TGI (BT-549 breast) | TGI (COLO 205 colon) | TGI (DU-145 prostate) | TGI (HOP-92 NSCLC) | TGI (LOX IMVI melanoma) | TGI (NCI-H522 lung) | TGI (SK-OV-3 ovarian) | TGI (T-47D breast) | TGI (U251 CNS) | TGI (UACC-62 melanoma)

CN=C(N)N/N=C(\c1ccccc1)c1ccc(Br)cc1
active: GI50 (COLO 205 colon) 0.279 µM | GI50 (DU-145 prostate) 0.366 µM | GI50 (HOP-92 NSCLC) 0.3 µM | GI50 (NCI-H522 lung) 0.21 µM | GI50 (U251 CNS) 0.375 µM
1.04 µM: TGI (COLO 205 colon)
12.3 µM: TGI (SK-OV-3 ovarian)
2.97 µM: TGI (LOX IMVI melanoma)
12.7 µM: TGI (BT-549 breast)
2.63 µM: TGI (U251 CNS)
9.16 µM: TGI (UACC-62 melanoma)
26.7 µM: TGI (T-47D breast)
2.9 µM: TGI (HOP-92 NSCLC)
0.616 µM: TGI (NCI-H522 lung)
inactive: GI50 (BT-549 breast) 1.5 µM | GI50 (LOX IMVI melanoma) 0.494 µM | GI50 (SK-OV-3 ovarian) 0.462 µM | GI50 (T-47D breast) 2.96 µM | GI50 (UACC-62 melanoma) 0.859 µM
10.5 µM: TGI (DU-145 prostate)

CCn1c(-c2nonc2N)nc2c(C#CCN)ncc(OCCCN)c21
> 25 µM: TGI (BT-549 breast) | TGI (COLO 205 colon) | TGI (DU-145 prostate) | TGI (HOP-92 NSCLC) | TGI (LOX IMVI melanoma) | TGI (NCI-H522 lung) | TGI (SK-OV-3 ovarian) | TGI (T-47D breast) | TGI (U251 CNS) | TGI (UACC-62 melanoma)
inactive: GI50 (BT-549 breast) > 25 µM | GI50 (COLO 205 colon) > 25 µM | GI50 (DU-145 prostate) > 25 µM | GI50 (HOP-92 NSCLC) 4.64 µM | GI50 (LOX IMVI melanoma) > 25 µM | GI50 (NCI-H522 lung) > 25 µM | GI50 (SK-OV-3 ovarian) > 25 µM | GI50 (T-47D breast) > 25 µM | GI50 (U251 CNS) > 25 µM | GI50 (UACC-62 melanoma) > 25 µM

COc1cc(-n2cc(-c3ccc(Cl)c(Cl)c3)nc2SCc2ccccc2)cc(OC)c1OC
> 100 µM: TGI (BT-549 breast) | TGI (COLO 205 colon) | TGI (DU-145 prostate) | TGI (HOP-92 NSCLC) | TGI (LOX IMVI melanoma) | TGI (NCI-H522 lung) | TGI (SK-OV-3 ovarian) | TGI (T-47D breast) | TGI (U251 CNS) | TGI (UACC-62 melanoma)
inactive: GI50 (BT-549 breast) > 100 µM | GI50 (COLO 205 colon) > 100 µM | GI50 (DU-145 prostate) > 100 µM | GI50 (HOP-92 NSCLC) > 100 µM | GI50 (LOX IMVI melanoma) > 100 µM | GI50 (NCI-H522 lung) 44.8 µM | GI50 (SK-OV-3 ovarian) > 100 µM | GI50 (T-47D breast) > 100 µM | GI50 (U251 CNS) > 100 µM | GI50 (UACC-62 melanoma) > 100 µM
